Results published in US11001595B2, “Pyrimidine compounds and pyrimido indole compounds and methods of use” (Duquesne University of the Holy Spirit, priority 2014, dated 2021).
Read-outs that look alike come from different tables or passages of the source.

Columns and labels:
SK-OV-3 cells [1] = conditions: Table 2, parental line; cited from earlier work
HeLa cells [2] = conditions: Table 3, parental line; cited from earlier work
[3] = test system: HeLa WTβ-III cells (β-III tubulin expressing); conditions: cited from earlier work
[4] = test system: SK-OV-3 MDR-1-6/6 cells (P-gp expressing); conditions: cited from earlier work
MDA-MB-435 cells = assay: Inhibition of cell proliferation, MDA-MB-435 (Section A); format: cell-based, human; conditions: Table 4; read-out: IC50 ± SD in MDA-MB-435 Cells
[5] = test system: microtubules in A-10 cells; assay: Microtubule depolymerization in A-10 cells (Section A); format: cell-based; conditions: Table 4, unit of column head (CA-4 row)
[6] = test system: HeLa WTβ-III cells (β-III tubulin expressing); assay: Effect of β-III tubulin on drug sensitivity, HeLa WT β-III (Section A); format: cell-based; conditions: for Rr: Table 6, relative resistance HeLa WTβ-III vs HeLa
OVCAR-8 cells = assay: Antiproliferative effect, parental OVCAR-8, SRB assay (Section E); format: cell-based, human
Wild type HeLa cells = assay: Antiproliferative effect, wild type HeLa, SRB assay (Section E); format: cell-based, human; conditions: read-out: IC50 ± SD Wild type HeLa
[7] = test system: βIII Overexpressing HeLa cells; assay: Antiproliferative effect, βIII overexpressing HeLa, SRB assay (Section E); format: cell-based, human; conditions: for Rr: IC50 of β-III overexpressing HeLa divided by IC50 of parental HeLa; for IC50: SRB assay, read-out: IC50 ± SD βIII Overexpressing HeLa
[8] = test system: NCl/ADR-RES cells (Pgp overexpressing); assay: Antiproliferative effect, Pgp overexpressing NCI/ADR-RES, SRB assay (Section E); conditions: for Rr: IC50 of Pgp overexpressing line divided by IC50 of parental OVCAR-8; for IC50: read-out: IC50 ± SD Pgp Overexpressing NCl/ADR-RES
SK-OV-3 cells [9] = assay: Drug sensitivity in parental SK-OV-3 cells (Section A); format: cell-based; conditions: Homo sapiens, Table 5, parental line
HeLa cells [10] = assay: Drug sensitivity in HeLa cells (Section A); format: cell-based; conditions: Homo sapiens, Table 6, parental line, read-out: IC50 ± SD in HeLa
[11] = test system: SK-OV-3 MDR-1-6/6 cells (P-gp expressing); conditions: Table 5, relative resistance SK-OV-3 MDR-1-6/6 vs SK-OV-3
recombinant pjDHFR = recombinant pjDHFR (Pneumocystis jirovecii (Human pneumocystis pneumonia agent), UniProt Q9UUP5); assay: Inhibition of recombinant pjDHFR; format: biochemical; conditions: 37° C., 18 μM dihydrofolic acid

COc1ccc(/C=C\c2cc(OC)c(OC)c(OC)c2)cc1OP(=O)(O)O [CA4P, combretastatin A-4 phosphate]
IC50 (SK-OV-3 cells [1]): 4.5 ± 0.2 nM
IC50 (HeLa cells [2]): 4.7 ± 0.2 nM
Rr ([3]; Table 3, relative resistance WT β-III vs HeLa): 1.2
IC50 ([3]; Table 3, β-III tubulin expressing line, read-out: WT β-III IC50): 5.7 ± 0.4 nM
Rr ([4]; Table 2, relative resistance SK-OV-3 MDR-1-6/6 vs SK-OV-3): 1.5
IC50 ([4]; read-out: SK-OV-3 MDR-1-6/6 IC50, Table 2, P-gp expressing line): 6.6 ± 1.3 nM

COc1ccc(/C=C\c2cc(OC)c(OC)c(OC)c2)cc1O [CA-4, combretastatin A-4]
IC50 (MDA-MB-435 cells): 4.4 ± 0.46 nM
EC50 [5]: 9.8 nM
Rr [6]: 1
IC50 (OVCAR-8 cells; read-out: IC50 ± SD Parental OVCAR-8): 6 ± 0.7 nM
IC50 (Wild type HeLa cells): 1.8 ± 0.4 nM
Rr [7]: 1.38
IC50 [7]: 2.5 ± 0.7 nM
Rr [8]: 1.5
IC50 ([8]; SRB assay): 9 ± 2 nM

CC(=O)O[C@H]1C(=O)[C@@]2(C)[C@H]([C@H](OC(=O)c3ccccc3)[C@]3(O)C[C@H](OC(=O)[C@H](O)[C@@H](NC(=O)c4ccccc4)c4ccccc4)C(C)=C1C3(C)C)[C@]1(OC(C)=O)CO[C@@H]1C[C@@H]2O [Paclitaxel]
IC50 (SK-OV-3 cells [9]): 5 ± 0.6 nM
IC50 (HeLa cells [10]): 2.8 ± 0.36 nM
IC50 ([6]; Homo sapiens, HeLa, Table 6, β-III tubulin expressing line, read-out: IC50 ± SD in HeLa WTβ-III): 24 ± 3 nM
Rr [6]: 8.6
IC50 (OVCAR-8 cells; Homo sapiens, OVCAR-8, read-out: IC50 ± SD Parental OVCAR-8): 10 nM
IC50 (Wild type HeLa cells; Homo sapiens, HeLa): 5.3 ± 2 nM
IC50 ([7]; Homo sapiens, HeLa): 16 ± 1 nM
Rr [7]: 3.01
Rr [11]: 240
IC50 ([8]; Homo sapiens, NCI/ADR-RES): 5000 nM
Rr [8]: 500

COc1cc(NCc2ccc3nc(N)nc(N)c3c2C)cc(OC)c1OC [TMQ, Trimetrexate]
IC50 (recombinant pjDHFR): 2.1 nM
